{"source": "patent US20050255178A1", "about": "“Enhancing the effectiveness of an inhaled therapeutic gas” (priority 2004, published 2005)", "key": {"[1]": {"test_system": "U-46619-induced pulmonary vasoconstriction", "experiment": "CO inhaled alone or in combination with BAY 41-2272 during U-46619-induced pulmonary vasoconstriction", "assay_type": "in vivo", "from_the_text": "Systemic hemodynamics, lung gas exchange, and transpulmonary cGMP release were also unchanged by CO inhalation. Arterial concentrations of carboxyhemoglobin gradually rose from 1.0±0.2% to 4.7±0.4% (P<0.01) and from 1.4±0.1% to 5.2±0.2% (P<0.01), respectively, after breathing 500 ppm CO alone or in combination with BAY 41-2272."}, "awake lambs": {"test_system": "awake lambs", "experiment": "U-46619-induced pulmonary hypertension in awake lambs: hemodynamics, gas exchange, cGMP release", "assay_type": "in vivo", "procedure": "In awake lambs instrumented with vascular catheters and a tracheostomy tube, the thromboxane analog U-46619 was infused intravenously to increase mean pulmonary arterial pressure (PAP) to 35 mm Hg. After a stabilization period, seven animals received an intravenous infusion of BAY 41-2272 (Alexis Biochemicals, Lausen, Switzerland) at 0.03, 0.1, and 0.3 mg·kg^−1·h^−1 administered for 30 minutes each. In another eight animals, inhaled NO (2, 10, and 20 ppm) was administered in random order for 10 minutes each followed by 15 minute NO-free periods. An intravenous infusion of BAY 41-2272 (0.1 mg·kg^−1·h^−1) was then started. After increasing the infusion of U-46619 to maintain PAP at 35 mmHg, NO was inhaled as before BAY 41-2272. In an additional eight lambs, which received an intravenous infusion of the NO synthase inhibitor, L-NAME (25 mg/kg+5 mg·kg^−1·h^−1), together with U-46619, NO was inhaled before and during the infusion of BAY 41-2272.\nData were analyzed using repeated measures ANOVA followed by Dunnett adjustment. A p<0.05 was considered statistically significant."}, "[2]": {"test_system": "mouse model of pulmonary hypertension", "experiment": "Mouse model of pulmonary hypertension (U46619): pulmonary and systemic arterial pressures", "assay_type": "in vivo, mice", "procedure": "A mouse model of pulmonary hypertension was used to examine the combined effects of YC-1 and inhaled NO. Three mice (average weight 25 g) were anesthetized, their chest opened, catheters were placed in the carotid and pulmonary arteries, and pulmonary and systemic arterial pressures were recorded (FIG. 4). U46619, a thromboxane analogue was administered intravenously to induce pulmonary vasoconstriction. NO (4 parts per million) was added to the inspired gas, and pulmonary vasodilation was measured. Thereafter, NO inhalation was discontinued, and the duration of the pulmonary vasodilator effect was measured.\nYC-1 was administered as boluses over one minute (10, 50 and 100 ug), and both pulmonary artery pressure and systemic blood pressure were measured. Thereafter, YC-1 was administered as an infusion (5 ug/min), and the rate of U46619 infusion was increased (2- to 3-fold) to re-establish pulmonary vasoconstriction. The pulmonary vasodilator response to breathing 4 ppm NO was measured, and duration of pulmonary vasodilation after discontinuing NO was assessed."}, "[3]": {"settings": "BAY 41-2272 0.1 mg·kg^−1·h^−1, L-NAME 25 mg/kg+5 mg·kg^−1·h^−1 iv, n=8"}, "[4]": {"settings": "BAY 41-2272 0.1 mg·kg^−1·h^−1 iv with inhaled NO, P<0.05"}, "[5]": {"settings": "BAY 41-2272 infusion with NO inhaled at 10 and 20 ppm"}, "[6]": {"settings": "BAY 41-2272 infusion with NO inhaled at 10 and 20 ppm, P<0.05 vs. baseline PH"}, "[7]": {"settings": "BAY 41-2272 iv infusion 0.03, 0.1, 0.3 mg·kg^−1·h^−1, 30 min each, n=7"}, "[8]": {"settings": "during BAY 41-2272 infusion, inhalation of 10 and 20 ppm NO, P<0.01 vs. baseline PH"}, "[9]": {"settings": "inhaled NO alone at 20 ppm, P<0.05"}, "[10]": {"settings": "YC-1 boluses over one minute (10, 50 and 100 ug)"}}, "data": [{"smiles": "Nc1nc(-c2nn(Cc3ccccc3F)c3ncccc23)ncc1C1CC1", "note": "[BAY 41-2272, 3-(4-amino-5-cyclopropylpyrimidine-2-yl)-1-(2-fluorobenzyl)-1H-pyrazolo[3,4-b]pyridine]", "values": [{"measurement": "plasma levels of BAY 41-2272", "setting": "[1]; in vivo", "result": "remained stable"}, {"measurement": "vasodilator effect on U-46619-induced pulmonary vasoconstriction", "setting": "[1]; inhalation of CO following administration of / in combination with BAY 41-2272", "result": "no vasodilator effect"}, {"measurement": "pulmonary vasodilation induced by BAY 41-2272 in presence of L-NAME", "setting": "awake lambs; [3]", "result": "but not pulmonary vasodilation"}, {"measurement": "systemic vasodilation induced by BAY 41-2272 in presence of L-NAME", "setting": "awake lambs; [3]", "result": "abolished"}, {"measurement": "reduction of PAP induced by inhaled NO", "setting": "awake lambs; BAY 41-2272 0.1 mg·kg^−1·h^−1 iv with inhaled NO 2, 10, 20 ppm, P<0.05", "result": "markedly enhanced"}, {"measurement": "reduction of PVRI induced by inhaled NO", "setting": "awake lambs; [4]", "result": "markedly enhanced"}, {"measurement": "reduction of PVRI/SVRI induced by inhaled NO", "setting": "awake lambs; [4]", "result": "markedly enhanced"}, {"measurement": "HR", "setting": "awake lambs; [5]", "result": "remained unchanged"}, {"measurement": "MAP", "setting": "awake lambs; [5]", "result": "remained unchanged"}, {"measurement": "central venous pressure (CVP)", "setting": "awake lambs; [5]", "result": "remained unchanged"}, {"measurement": "reduction of right ventricle stroke work index (RVSWI)", "setting": "awake lambs; BAY 41-2272 infusion with NO inhaled at 10 and 20 ppm vs inhaled NO alone, P<0.05", "result": "to a greater extent than did inhaled NO alone"}, {"measurement": "cardiac index (CI)", "setting": "awake lambs; [6]", "result": "increments"}, {"measurement": "pulmonary capillary wedge pressure (PCWP)", "setting": "awake lambs; [6]", "result": "minor reductions"}, {"measurement": "stroke volume index (SVI)", "setting": "awake lambs; [6]", "result": "increments"}, {"measurement": "systemic vascular resistance index (SVRI)", "setting": "awake lambs; [6]", "result": "minor reductions"}, {"measurement": "mean PAP (percent change from pre-treatment pulmonary hypertension value)", "setting": "awake lambs; [7]", "result": "dose-dependent reductions"}, {"measurement": "pulmonary vascular resistance index (PVRI) (percent change from pre-treatment pulmonary hypertension value)", "setting": "awake lambs; [7]", "result": "dose-dependent reductions"}, {"measurement": "reductions in mean PAP and PVRI compared with corresponding reductions in MAP and SVRI", "setting": "awake lambs; BAY 41-2272 iv infusion 0.03-0.3 mg·kg^−1·h^−1, p<0.05", "result": "significantly greater"}, {"measurement": "increase of transpulmonary cGMP release", "setting": "awake lambs; co-administration of BAY 41-2272 and inhaled NO vs inhaled NO alone, P<0.05", "result": "to a greater extent than did inhaled NO alone"}, {"measurement": "persistence of pulmonary vasodilation (T1/2) after NO was discontinued", "setting": "awake lambs; during BAY 41-2272 infusion vs before, P<0.05", "result": "greater than that before the infusion"}, {"measurement": "P(A-a)O2", "setting": "awake lambs; [8]", "result": "reduced"}, {"measurement": "PaO2/FiO2", "setting": "awake lambs; [8]", "result": "augmented"}, {"measurement": "Qs/Qt", "setting": "awake lambs; [8]", "result": "reduced"}, {"measurement": "plasma BAY 41-2272 concentrations", "setting": "awake lambs; during the period of NO administrations, iv infusion 0.1 mg·kg^−1·h^−1", "result": "remained at a stable level"}]}, {"smiles": "[C-]#[O+]", "note": "[CO, carbon monoxide]", "values": [{"measurement": "lung gas exchange", "setting": "[1]; CO inhalation", "result": "unchanged"}, {"measurement": "systemic hemodynamics", "setting": "[1]; CO inhalation", "result": "unchanged"}, {"measurement": "transpulmonary cGMP release", "setting": "[1]; CO inhalation", "result": "unchanged"}, {"measurement": "vasodilator effect on U-46619-induced pulmonary vasoconstriction", "setting": "[1]; inhalation of CO alone", "result": "no vasodilator effect"}]}, {"smiles": "[N]=O", "note": "[NO, Nitric oxide]", "values": [{"measurement": "T1/2 of return of PAP to baseline pulmonary hypertension after NO was discontinued", "setting": "awake lambs; inhaled NO alone", "result": "< 1", "unit": "min"}, {"measurement": "arterial methemoglobin concentrations", "setting": "awake lambs; inhaled NO alone", "result": "no significant changes"}, {"measurement": "pulmonary vasodilation", "setting": "awake lambs; inhaled NO alone 2, 10, 20 ppm, 10 min each", "result": "dose-dependent, selective pulmonary vasodilation"}, {"measurement": "transpulmonary cGMP release", "setting": "awake lambs; inhaled NO alone 10 and 20 ppm, P<0.01", "result": "increased"}, {"measurement": "P(A-a)O2", "setting": "awake lambs; [9]", "result": "reduced"}, {"measurement": "PaO2/FiO2", "setting": "awake lambs; [9]", "result": "increased"}, {"measurement": "Qs/Qt", "setting": "awake lambs; [9]", "result": "reduced"}]}, {"smiles": "OCc1ccc(-c2nn(Cc3ccccc3)c3ccccc23)o1", "note": "[YC-1, 3-(5′-hydroxymethyl-2′-furyl)-1-benzylindazole]", "values": [{"measurement": "pulmonary vasodilator response to breathing NO", "setting": "[2]; 4 ppm NO during YC-1 infusion (5 ug/min) vs NO alone", "result": "greater pulmonary vasodilator response than did breathing NO alone"}, {"measurement": "systemic vasodilation on addition of NO inhalation to YC-1", "setting": "[2]; 4 ppm NO, YC-1 infusion 5 ug/min", "result": "did not cause systemic vasodilation"}, {"measurement": "pulmonary vasodilation (pulmonary artery pressure)", "setting": "[2]; [10]", "result": "induced both pulmonary and systemic vasodilation"}, {"measurement": "systemic vasodilation (systemic blood pressure)", "setting": "[2]; [10]", "result": "induced both pulmonary and systemic vasodilation"}, {"measurement": "duration of pulmonary vasodilation after discontinuing NO inhalation", "setting": "[2]; during YC-1 infusion (5 ug/min) vs before, P<0.01", "result": "greater during an infusion of YC-1 than before"}]}]}
